Measurements reported in patent US6296870A, “Liposomes containing active agents” (Duke University, priority 1998, dated 2001).
“Also recorded” adds a separate entry of the source. Values belong to the compound of their own block, whether it stands above or below them.

Key:
[1] = Mechanical tests of bilayer tensile strength; format: physicochemical
Method: (3) Mechanical tests of bilayer tensile strength were carried out on vesicles that contained 0-20 mol % PEG(750)-lipid as a function of MOPC uptake.
As the bilayer takes up more and more of a water-soluble second component (e.g., bile acid or MOPC) it is expected that it will become weaker and softer (Evans et al., In Bile Acids in Gasteroenterology Basic and Clinical Advances, Hoffman et al. (Eds.) Kluwer Academic Publishers, Doderecht, Boston and London, pp. 59-68 (1994); Needham and Zhelev, Ann. Biomed. Egr. 23:287 (1995); Zhelev, Biophys J. 71:257 (1996)). To test this model, the tensile rupture strength of vesicles containing various amounts of MOPC at stationary equilibrium was measured. […] To obtain the wide range of MOPC bilayer concentrations, several different lipid, PEG-lipid and MOPC solution concentrations were used (0.1 μM MOPC; 1.0 μM MOPC; 20% PEG-lipid and 100 μM MOPC; 4% PEG-lipid and 100 μM MOPC; and 1% PEG-lipid and 100 μM MOPC) as indicated on the plot next to each data point in FIG. 6.
PEG-lipids were used in some but not all of these vesicle tests. Whether the incorporation of the PEG-lipids (DMPE-(PEG)750) themselves had any effect on the tensile strength of the bilayer vesicles was also investigated. […]

[2] = unmodified egg PC membranes, flow rate 300 μm/s; cited from earlier work
[3] = MOPC uptake into and desorption from single vesicles, micropipet lysolipid exchange; format: physicochemical
Method: I. du Pont de Nemours and Co.) disc and the chloroform evaporated under nitrogen. Final traces of solvent were removed by placing the disc in an evacuated desiccator for 2 hours (Needham and Nunn, Biophys. J. 58:997 (1990)). The so-formed dried lipid layers were prehydrated with water vapor in a nitrogen carrier gas and then fully hydrated overnight in a sucrose solution at 40° C. […] Both the pure SOPC and SOPC/PEG(750)-lipid vesicles were re-suspended in a glucose solution of 205 mOsm for use in micromanipulation experiments as described below. […] The microscope images were recorded using a COHU CCD camera. […] The pipettes were connected to a manometer system that allowed the applied pressures to be changed and measured to an accuracy of 2 microatmospheres. The micropipet suction pressures were measured by differential transducer (Validyne DP15-24). The measured pressures together with real time were multiplexed on the recorded images with a multiplexer (Model 401, Vista Electronics, La Mesa, Calif., USA). The recorded images were used to measure the change of the vesicle projection length inside the holding pipet during uptake and desorption of lysolecithin, and to calculate the membrane tension. […] The vesicle projection length (Lp) inside the holding pipet is measured and the effects of various solutions on the Lp of the test vesicle are compared. […]

[4] = Critical micelle concentration by DPH fluorescence; format: physicochemical
Method: The critical micelle concentration (CMC) of the lysolipid was measured independently by DPH fluorescence following the method in Chattopadhyay and London, Analytical Biochem. 139:408 (1984). Briefly, a series of solutions containing increasing concentrations of MOPC in the range 10^-7 M to 10^-4 M were prepared. Diphenyl hexatriene (DPH), a lipid soluble fluorescent dye, was added to these samples and the intensity of fluorescence was measured by spectrofluorimeter at absorption and emission wavelengths of 358 nm and 430 nm, respectively. The CMC was determined by plotting the fluorescence intensity (in arbitrary units) verses concentration of MOPC solutions, made up by diluting a 100 mM stock solution of MOPC (solubilized initially by Tetrahydrofuran) in water (Chattopadhyay and London, Analytical Biochem. 139:408 (1984)).
This second trial used SOPC +20 mol % PEG2000 DSPE (0.2 mg/ml, 2×10^-4 M total lipid) for the lipid vesicles and 1 mM PEG2000 DSPE as micellar suspension. […] It was as though the PEG-lipids at this high concentration had formed a gel inside the vesicles.

[5] = TAXOL solubilized in MOPC micelle suspension; format: physicochemical
Method: For concentrations higher than 50 micromolar, samples were diluted in methanol and the original concentrations were back-calculated.
These components were mixed together in glass culture tubes, and the mixture was dried and kept under vacuum for approximately 15 hours to evaporate the solvent. MOPC was chosen because it has an acyl chain composition that matches the di-chain phospholipid, stearoyloleoylphosphatidylcholine, that was used to form the lipid bilayers of encapsulating liposomes, as discussed below. […] Surfactants with high CMCs (e.g., in the mM range) readily dissolve lipid membranes, even when the membranes contain cholesterol.

[6] = Solubility of TAXOL in water and organic solvents; format: physicochemical; details: hexane or tetradecane
[7] = cited from earlier work
[8] = small angle neutron scattering; cited from earlier work

Compound: 1,2-Dimyristoyl-sn-Glycero-3-Phosphoethanolamine -N-PEG-750 [PEG(750)-lipid]
tensile rupture strength, effect [1]: did not reduce the tensile strength significantly, up to 20 mol % PEG-lipid

aggregation number in membrane ([3]; above the CMC): about 12 | critical micelle concentration (CMC) [4]: 3 µM
Compound: CCCCCCCC/C=C\CCCCCCCC(=O)OC[C@@H](O)COP(=O)([O-])OCC[N+](C)(C)C [MOPC, mono-oleoyl-phosphatidylcholine]
rate of MOPC desorption [2]: 0.2 s⁻¹ | overall rate of MOPC desorption ([3]; flow rate 400 μm/s, all PEG(750)-lipid concentrations, 5 vesicles): 0.4 ± 0.2 s⁻¹ | tensile rupture strength, effect [1]: decrease with increasing MOPC concentration

stability of TAXOL in micelle suspension ([5]; 0.2 mM TAXOL, 5 mM MOPC): at least 24 hours | TAXOL solubilized in MOPC micelles ([5]; 5 mM MOPC): up to 1 mM | increase of solubility limit over aqueous solubility ([5]; 20 mM LPC): about 4000 times | solubility limit in aqueous media in presence of LPC ([5]; 20 mM LPC): 4 mM | moles TAXOL solubilized per mole MOPC micelle ([5]; MOPC micelle, data not shown): 1 mole TAXOL per mole MOPC
Compound: CC(=O)O[C@H]1C(=O)[C@@]2(C)[C@H]([C@H](OC(=O)c3ccccc3)[C@]3(O)C[C@H](OC(=O)[C@H](O)[C@@H](NC(=O)c4ccccc4)c4ccccc4)C(C)=C1C3(C)C)[C@]1(OC(C)=O)CO[C@@H]1C[C@@H]2O [TAXOL®]
solubility in alkanes / hexane [6]: not soluble at all in alkanes such as hexane or tetradecane; also recorded: largely insoluble in hexane | water solubility of TAXOL [7]: about 1 micromolar

Compound: CCCCCC(=O)OCC(COP(=O)([O-])OCC[N+](C)(C)C)OC(=O)CCCCC (stereo not drawn) [dicaproylphosphatidylcholine]
micelle aggregation number [8]: 19

Compound: CCCCCCC(=O)OCC(COP(=O)([O-])OCC[N+](C)(C)C)OC(=O)CCCCCC (stereo not drawn) [diheptanoylphosphatidylcholine]
micelle aggregation number [8]: 27
